Here are results for two molecules from patent US10674728B2, “Pesticidal compositions” (SYNGENTA PARTICIPATIONS AG, priority 2016, dated 2020).

Each structure is given as a SMILES string.

The test system of one assay is Rhizoctonia solani. The assay can be described thus: Tests against Rhizoctonia solani (foot rot, damping-off), growth inhibition in microtiter plate. It is filed as cell-based. Particulars: 72 hrs, 24° C., read-out: Observed % activity.
Another assay deals with Pyricularia orzyae. As to the kind of experiment: microbe, parasite or virus in culture. It is filed as cell-based. The settings on record: 72 h, read-out: Observed % activity.
Assay [1] concerns Glomerella lagenarium syn. Colletotrichum lagenarium. The assay can be described thus: Tests against Glomerella lagenarium (anthracnose of cucurbits), growth inhibition in microtiter plate. It is filed as cell-based. Particulars: Colletotrichum orbiculare, 72 hrs, 24° C., read-out: Observed % activity.
In assay [2] the test system is Rice (Oryza sativa L.) of the local variety ADT45. As to the kind of experiment: Heat stress mitigation field trials in rice, grain yield. The settings on record: 10 gAl/Ha, foliar spray at panicle formation (BBCH 32), hot season. It is filed as in vivo. On the procedure:
Tests were conducted to determine the heat stress mitigation efficacy of compositions of the present invention.
Trials were conducted in the Tamil Nadu rice production area (India) during the hot season in 2016.
Rice (Oryza sativa L.) of the local variety ADT45 was mechanically transplanted at four plants per hill with a plant spacing of 16 cm and a row spacing of 30 cm. All trials were performed in good level of water management. Fertilizer was applied in accordance with the best local practice across the trial area.
Commercial treated seeds (no neonicotinoids as seed treatments) were used. Weed control was according to the best local practice in order to provide excellent weed control. Foliar fungicides and insecticides were applied according to common practice (no products that contain neonicotinoids or strobilurins).
The trial design was a randomized bloc design. Plot size was 40 m^2 (4 m width [12 rows] by 10 m row length). Each trial had four replicates. In total, eleven trials were conducted.
Treatments were applied with small-plot hand-held boom sprayer as broadcast foliar spray in close proximity to leaf/canopy surface (25-40 cm distance from the crop), at the following different treatment timings: panicle initiation (BBCH 30), panicle formation (BBCH 32), spikelet differentiation (BBCH 35) and meiosis (BBCH 39).

Where [3] appears, read: (A) Formula (Ia) 10.0 ppm alone.

On to `CC1COC(Cn2cncn2)(c2ccc(Oc3ccc(Cl)cc3)cc2Cl)O1` (stereo not shown) [Difenoconazole, difenoconazole, reference compound], for which, in the assay on Rhizoctonia solani ((B) Difenoconazole 2.0 ppm alone), the inhibition at 2 ppm is 47%. In addition, in the assay on Pyricularia orzyae, the inhibition at 0.0625 ppm was 34% and the inhibition at 0.25 ppm is 71%. In addition, the inhibition at 0.25 ppm in assay [1] ((B) Difenoconazole 0.25 ppm alone) amounted to 36%.
Turning to `COc1cccc(Nc2nc(F)nc3[nH]cnc23)c1` [Formula (Ia)], the inhibition at 5 ppm with Rhizoctonia solani ((A) Formula (Ia) 5.0 ppm alone, inhibition of growth, photometric) is 7%; in assay [1] ((A) Formula (Ia) 5.0 ppm alone), 0%. The inhibition at 10 ppm in the assay on Rhizoctonia solani (setting [3]) is 0%; in the assay on Pyricularia orzyae, 3%; in assay [1] (setting [3]), 0%. In addition, in the assay on Rhizoctonia solani ((A) Formula (Ia) 20.0 ppm alone), the inhibition at 20 ppm was 0%. Further, in the assay with Pyricularia orzyae, the inhibition at 0.1563 ppm was determined as 0%. For the same molecule, the inhibition at 0.625 ppm in assay [1] ((A) Formula (Ia) 0.6250 ppm alone, inhibition of growth, photometric at 620 nm) was determined as 5%. Further, the inhibition at 1.25 ppm in assay [1] ((A) Formula (Ia) 1.25 ppm alone) is 0%. In assay [1] ((A) Formula (Ia) 2.5 ppm alone), the inhibition at 2.5 ppm was found to be 2%. Also, in assay [2], the “Average yield increase compared to UTC” value is given as 4.4%. Moreover, in assay [2], the “Yield at 14% MC” value stood at 6820 kg/ha.
